Reference: ChEMBL document CHEMBL1201862, “PubChem BioAssay data set” (2004)
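Exposure lasted 48 hours, with cells grown in 96-well plates and compounds tested at five concentrations. At the GI50, growth is halved.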 Active and inactive are the calls of the source. Rule as the data show it: active = GI50 up to about 1.1 µM and inactive = higher.

Experiments:
Assay in all cases: NCI anticancer screen, dose series, 48 h
SF-539 = system: SF-539
Malme-3M = system: Malme-3M
RXF 393 = system: RXF 393
IGROV-1 = system: IGROV-1
SK-OV-3 = system: SK-OV-3
SN12C = system: SN12C
NCI-H23 = system: NCI-H23
MOLT-4 = system: MOLT-4
HOP-62 = system: HOP-62
UO-31 = system: UO-31
SW-620 = system: SW-620
M14 = system: M14
HT-29 = system: HT-29
CCRF-CEM = system: CCRF-CEM
EKVX = system: EKVX
LOX IMVI = system: LOX IMVI
ACHN = system: ACHN

Measured: GI50

Cc1nn2c3c(nnc2c1C#N)C(=O)NN=C(N)S3
inactive: SF-539 > 100 µM | Malme-3M > 100 µM | RXF 393 > 100 µM | IGROV-1 > 100 µM | SK-OV-3 > 100 µM | SN12C > 100 µM | NCI-H23 > 100 µM | MOLT-4 > 100 µM | HOP-62 > 100 µM | UO-31 > 100 µM | SW-620 > 100 µM | M14 > 100 µM | HT-29 > 100 µM | CCRF-CEM > 100 µM | EKVX > 100 µM

O=c1nc(NC(c2ccccc2)(c2ccccc2)c2ccccc2)ccn1CCNCCn1ccc(NC(c2ccccc2)(c2ccccc2)c2ccccc2)nc1=O
inactive: LOX IMVI 2.84 µM | SF-539 11.3 µM | Malme-3M 11.8 µM | RXF 393 11.8 µM | IGROV-1 5.15 µM | SK-OV-3 19.6 µM | ACHN 40.6 µM | SN12C 12.4 µM | NCI-H23 12.5 µM | HOP-62 15.5 µM | UO-31 > 100 µM | SW-620 6.64 µM | M14 18.3 µM | HT-29 5.83 µM | CCRF-CEM 5.96 µM | EKVX 18.7 µM

N#C/C(c1nc2ccccc2[nH]1)=c1\s/c(=C/c2ccc(Cl)cc2)c(=O)n1-c1ccccc1
inactive: LOX IMVI > 100 µM | SF-539 > 100 µM | Malme-3M > 100 µM | IGROV-1 15.7 µM | SK-OV-3 > 100 µM | ACHN > 100 µM | SN12C > 100 µM | NCI-H23 > 100 µM | MOLT-4 > 100 µM | HOP-62 > 100 µM | UO-31 > 100 µM | SW-620 > 100 µM | M14 > 100 µM | CCRF-CEM > 100 µM | EKVX > 100 µM

CCOC(=O)/C(Br)=C1\OC(=O)c2ccccc2-c2ccccc21
inactive: LOX IMVI 36.8 µM | SF-539 25.1 µM | Malme-3M 47.2 µM | IGROV-1 63.5 µM | SK-OV-3 34 µM | ACHN 52.6 µM | SN12C 37.4 µM | NCI-H23 57.8 µM | MOLT-4 25.9 µM | HOP-62 24.2 µM | UO-31 38.7 µM | SW-620 42.5 µM | M14 40.4 µM | HT-29 33.2 µM | CCRF-CEM 23.3 µM | EKVX > 100 µM

c1ccc2c3c([nH]c2c1)C1(CCCCC1)c1c([nH]c2ccccc12)C31CCCCC1
inactive: LOX IMVI 34.4 µM | Malme-3M 23.1 µM | RXF 393 25.4 µM | IGROV-1 31.3 µM | SK-OV-3 18.2 µM | ACHN 17.5 µM | SN12C 22.9 µM | NCI-H23 31 µM | MOLT-4 47.5 µM | HOP-62 19.5 µM | UO-31 29 µM | SW-620 > 100 µM | M14 30 µM | HT-29 > 100 µM | CCRF-CEM 79.8 µM | EKVX 26.2 µM

CCO/C([O-])=C(\C(=O)c1ccc([N+](=O)[O-])cc1)[n+]1c(C)n(C)c2ccccc21
inactive: LOX IMVI > 100 µM | SF-539 > 100 µM | Malme-3M > 100 µM | RXF 393 > 100 µM | IGROV-1 > 100 µM | SK-OV-3 > 100 µM | NCI-H23 > 100 µM | MOLT-4 > 100 µM | HOP-62 > 100 µM | UO-31 > 100 µM | SW-620 > 100 µM | M14 > 100 µM | HT-29 > 100 µM | CCRF-CEM > 100 µM | EKVX > 100 µM

OC1OCC(COc2cc(Cl)c(Cl)cc2Cl)OC1O (centres undefined)
inactive: SF-539 39.4 µM | Malme-3M 61.2 µM | IGROV-1 80.9 µM | SK-OV-3 88.1 µM | ACHN 25.3 µM | SN12C 38.2 µM | NCI-H23 59.2 µM | MOLT-4 32.2 µM | HOP-62 76.7 µM | UO-31 41.9 µM | SW-620 19.1 µM | M14 30.1 µM | HT-29 65.8 µM | CCRF-CEM 32 µM | EKVX 34.3 µM

COc1ccc(OCC(=O)O)c2c1CCC(C(C)C)C2=O (centres undefined)
inactive: LOX IMVI > 100 µM | SF-539 > 100 µM | Malme-3M > 100 µM | IGROV-1 > 100 µM | SK-OV-3 > 100 µM | ACHN > 100 µM | NCI-H23 > 100 µM | MOLT-4 > 100 µM | HOP-62 > 100 µM | UO-31 > 100 µM | SW-620 > 100 µM | M14 > 100 µM | HT-29 > 100 µM | CCRF-CEM > 100 µM | EKVX > 100 µM

CC1CC[C@]2(C(=O)O)CCC3(C)C(=CCC4[C@@]5(C)CC[C@H](OS(=O)(=O)c6ccccc6)C(C)(C)C5CC[C@]43C)[C@@H]2[C@H]1C (some centres undefined)
inactive: LOX IMVI 83 µM | SF-539 > 100 µM | Malme-3M > 100 µM | IGROV-1 > 100 µM | SK-OV-3 > 100 µM | ACHN 52.2 µM | SN12C > 100 µM | NCI-H23 52.7 µM | MOLT-4 34.3 µM | HOP-62 > 100 µM | UO-31 88.9 µM | SW-620 > 100 µM | M14 > 100 µM | HT-29 > 100 µM | CCRF-CEM 78 µM | EKVX 55.1 µM
